Values of other authors in patent publication US20220096389A1, “PHARMACEUTICAL COMPOSITIONS OF AMORPHOUS SOLID DISPERSIONS AND METHODS OF PREPARATION THEREOF” (Shenzhen Pharmacin Co., Ltd., priority 2020, published 2022).

Assays:
[1] = cited from earlier work; for Measured or Calculated pKas (first value): first value in cell; for Measured or Calculated pKas (second value): second value in cell
[2] = tested on: EGFR and HER2 autophosphorylation, downstream MAPK and AKT signaling pathways; settings: in vitro; cited from earlier work
[3] = molecular target: Human Epidermal Growth Factor Receptor 2 (HER2) (Homo sapiens, UniProt P04626); settings: cited from earlier work
[4] = tested on: tumor cell lines expressing HER2 and EGFR; settings: oral administration; cited from earlier work
[5] = tested on: EGFR and/or HER2 expressing carcinoma cell lines; settings: in vitro; cited from earlier work
HER4 = HER4 (Homo sapiens, UniProt Q15303); settings: cited from earlier work
Chain of HER4 (Q15303 26-1308): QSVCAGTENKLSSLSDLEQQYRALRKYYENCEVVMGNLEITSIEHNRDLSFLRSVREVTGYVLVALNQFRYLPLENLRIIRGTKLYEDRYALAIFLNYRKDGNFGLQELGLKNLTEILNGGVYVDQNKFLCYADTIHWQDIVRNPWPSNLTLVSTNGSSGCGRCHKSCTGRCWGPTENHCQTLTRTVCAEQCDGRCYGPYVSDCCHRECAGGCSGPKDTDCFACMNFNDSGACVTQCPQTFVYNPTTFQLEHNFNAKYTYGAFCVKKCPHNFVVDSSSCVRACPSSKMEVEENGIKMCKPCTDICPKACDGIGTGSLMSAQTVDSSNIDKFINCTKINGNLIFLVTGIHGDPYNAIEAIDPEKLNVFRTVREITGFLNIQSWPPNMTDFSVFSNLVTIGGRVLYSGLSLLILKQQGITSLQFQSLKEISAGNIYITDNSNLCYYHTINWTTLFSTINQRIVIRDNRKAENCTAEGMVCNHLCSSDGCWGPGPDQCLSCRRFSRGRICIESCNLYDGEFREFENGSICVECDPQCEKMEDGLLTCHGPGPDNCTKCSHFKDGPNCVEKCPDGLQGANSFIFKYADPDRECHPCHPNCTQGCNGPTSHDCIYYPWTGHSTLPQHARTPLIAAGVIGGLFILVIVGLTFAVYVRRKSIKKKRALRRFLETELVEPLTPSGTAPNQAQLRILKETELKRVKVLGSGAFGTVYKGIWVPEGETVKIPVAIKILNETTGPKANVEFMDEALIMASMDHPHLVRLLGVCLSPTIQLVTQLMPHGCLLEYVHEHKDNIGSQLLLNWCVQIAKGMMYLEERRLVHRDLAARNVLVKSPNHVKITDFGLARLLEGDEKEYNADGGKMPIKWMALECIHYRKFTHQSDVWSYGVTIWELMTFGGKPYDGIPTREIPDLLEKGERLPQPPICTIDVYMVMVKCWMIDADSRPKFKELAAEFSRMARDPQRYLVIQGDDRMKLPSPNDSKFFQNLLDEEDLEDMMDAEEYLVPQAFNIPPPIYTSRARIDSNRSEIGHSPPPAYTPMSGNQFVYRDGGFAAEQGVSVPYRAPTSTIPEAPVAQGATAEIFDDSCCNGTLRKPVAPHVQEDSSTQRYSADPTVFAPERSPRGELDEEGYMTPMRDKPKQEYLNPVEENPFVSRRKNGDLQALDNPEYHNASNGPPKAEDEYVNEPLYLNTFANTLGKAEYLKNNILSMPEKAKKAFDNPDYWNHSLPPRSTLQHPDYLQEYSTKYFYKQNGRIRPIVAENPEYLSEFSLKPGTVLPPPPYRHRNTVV

Chain of Human Epidermal Growth Factor Receptor 2 (HER2) (P04626 23-1255): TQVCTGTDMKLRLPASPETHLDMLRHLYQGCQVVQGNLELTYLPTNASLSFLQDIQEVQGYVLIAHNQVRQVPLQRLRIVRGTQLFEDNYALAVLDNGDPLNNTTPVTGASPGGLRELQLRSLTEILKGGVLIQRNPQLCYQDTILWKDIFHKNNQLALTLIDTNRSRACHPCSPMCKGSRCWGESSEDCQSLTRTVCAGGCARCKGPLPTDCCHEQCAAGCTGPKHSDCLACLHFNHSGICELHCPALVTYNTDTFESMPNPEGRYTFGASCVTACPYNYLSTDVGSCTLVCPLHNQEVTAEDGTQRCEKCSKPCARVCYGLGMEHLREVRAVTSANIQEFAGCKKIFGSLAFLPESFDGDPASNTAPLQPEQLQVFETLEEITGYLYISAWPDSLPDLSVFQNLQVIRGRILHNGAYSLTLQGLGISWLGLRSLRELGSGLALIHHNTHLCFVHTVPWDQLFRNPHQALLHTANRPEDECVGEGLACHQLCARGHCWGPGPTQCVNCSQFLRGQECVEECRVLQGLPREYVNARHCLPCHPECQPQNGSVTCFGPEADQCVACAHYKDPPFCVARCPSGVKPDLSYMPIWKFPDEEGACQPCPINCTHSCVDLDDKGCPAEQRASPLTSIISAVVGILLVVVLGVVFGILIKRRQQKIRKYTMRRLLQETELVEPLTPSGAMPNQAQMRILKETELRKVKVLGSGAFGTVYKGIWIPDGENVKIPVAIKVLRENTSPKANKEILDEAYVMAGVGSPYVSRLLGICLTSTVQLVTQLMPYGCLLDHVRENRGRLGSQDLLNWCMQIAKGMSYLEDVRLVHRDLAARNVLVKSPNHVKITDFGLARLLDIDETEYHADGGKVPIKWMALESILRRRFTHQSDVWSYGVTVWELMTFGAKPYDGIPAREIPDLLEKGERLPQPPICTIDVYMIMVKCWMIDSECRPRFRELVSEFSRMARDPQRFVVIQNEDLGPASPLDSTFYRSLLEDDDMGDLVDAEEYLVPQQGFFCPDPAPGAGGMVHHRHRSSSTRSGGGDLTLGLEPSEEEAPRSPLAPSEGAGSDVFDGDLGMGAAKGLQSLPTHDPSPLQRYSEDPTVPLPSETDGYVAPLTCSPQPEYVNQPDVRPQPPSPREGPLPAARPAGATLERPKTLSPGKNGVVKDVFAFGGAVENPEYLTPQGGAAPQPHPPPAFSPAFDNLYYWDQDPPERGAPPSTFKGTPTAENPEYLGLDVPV

Row | Compound | Measured or Calculated pKas (first value) [1] | Measured or Calculated pKas (second value) [1] | further results
1 | CC[C@H]1OC(=O)[C@H](C)[C@@H](O[C@H]2C[C@@](C)(OC)[C@@H](O)[C@H](C)O2)[C@H](C)[C@@H](O[C@@H]2O[C@H](C)C[C@H](N(C)C)[C@H]2O)[C@](C)(OC)C[C@@H](C)C(=O)[C@H](C)[C@@H](O)[C@]1(C)O [Clarithromycin] | 7.25 |  | 
2 | CCN1CCN(c2cc3c(cc2F)c(=O)c(C(=O)O)cn3C2CC2)CC1 [Enrofloxacin] | 5.88 ± 0.03 | 7.74 ± 0.03 | 
3 | C#Cc1cccc(Nc2ncnc3cc(OCCOC)c(OCCOC)cc23)c1 [Erlotinib] | 5.4 |  | 
4 | CN1C[C@@H]2C[C@H]1CN2c1cc2c(cc1F)c(=O)c(C(=O)O)cn2C1CC1 [Danofloxacin] | 6.07 ± 0.06 | 8.56 ± 0.07 | 
5 | O=C(O)CCC(=O)c1ccc(-c2ccccc2)cc1 [Fenbufen] | 4.56 |  | 
6 | Cc1nnc(NS(=O)(=O)c2ccc(N)cc2)s1 [Sulfamethizole] | 1.86 ± 0.30 | 5.29 ± 0.04 | 
7 | Nc1ccc(S(=O)(=O)Nc2ccc(Cl)nn2)cc1 [Sulfachloropyridazine] | 1.87 ± 0.30 | 5.45 ± 0.06 | 
8 | CCn1cc(C(=O)O)c(=O)c2cnc(N3CCNCC3)nc21 [Pipemidic acid] | 5.42 ± 0.05 | 8.18 ± 0.09 | 
9 | C=C1c2c(Cl)ccc(O)c2C(=O)C2=C(O)[C@]3(O)C(=O)C(C(N)=O)=C(O)[C@@H](N(C)C)[C@@H]3[C@@H](O)[C@H]12 [Meclocycline] | 4.05 ± 0.30 | 6.87 ± 0.39 | 
10 | CC(=O)NS(=O)(=O)c1ccc(N)cc1 [Sulfacetamide] | 1.95 ± 0.11 | 5.30 ± 0.05 | 
11 | CC(=O)Nc1ccc(OCC(O)CNC(C)C)cc1 (stereo not drawn) [Practolol] | 9.41 |  | 
12 | Cc1ccnc(NS(=O)(=O)c2ccc(N)cc2)n1 [Sulfamerazine] | 2.17 | 6.77 | 
13 | CC(C)NCC(O)COc1cccc2ccccc12 (stereo not drawn) [Propranolol] | 9.49 ± 0.2 |  | 
14 | CN1CCN(c2cc3c(cc2F)c(=O)c(C(=O)O)cn3-c2ccc(F)cc2)CC1 [Difloxacin] | 5.66 ± 0.04 | 7.24 ± 0.06 | 
15 | Nc1ccc(S(=O)(=O)Nc2ncccn2)cc1 [Sulfadiazine] | 2.10 | 6.28 | 
16 | CC[C@H]1OC(=O)C[C@@H](O)[C@H](C)[C@@H](O[C@@H]2O[C@H](C)[C@@H](O[C@H]3C[C@@](C)(O)[C@@H](O)[C@H](C)O3)[C@H](N(C)C)[C@H]2O)[C@@H](CC=O)C[C@@H](C)C(=O)/C=C/C(C)=C/[C@@H]1CO[C@@H]1O[C@H](C)[C@@H](O)[C@@H](OC)[C@H]1OC [Tylosin] | 3.31 ± 0.30 | 7.50 ± 0.13 | 
17 | CC[C@H]1OC(=O)[C@H](C)[C@@H](O[C@H]2C[C@@](C)(OC)[C@@H](O)[C@H](C)O2)[C@H](C)[C@@H](O[C@@H]2O[C@H](C)C[C@H](N(C)C)[C@H]2O)[C@](C)(O)C[C@@H](C)CN(C)[C@H](C)[C@@H](O)[C@]1(C)O [Azithromycin] | 7.34 |  | 
18 | CN1CCN(c2c(F)cc3c(=O)c(C(=O)O)cn(CCF)c3c2F)CC1 [Fleroxacin] | 5.46 | 8.00 | 
19 | CC(C)Cc1ccc(C(C)C(=O)O)cc1 (stereo not drawn) [Ibuprofen] | 4.51 |  | 
20 | CN(C)[C@@H]1C(O)=C(C(N)=O)C(=O)[C@@]2(O)C(O)=C3C(=O)c4c(O)ccc(Cl)c4[C@@](C)(O)[C@H]3C[C@@H]12 [Chlortetracycline] | 3.33 ± 0.30 | 7.55 ± 0.02 | 
21 | CCOc1cc2ncc(C#N)c(Nc3ccc(OCc4ccccn4)c(Cl)c3)c2cc1NC(=O)/C=C/CN(C)C [Neratinib] |  |  | EGFR and HER2 autophosphorylation, downstream MAPK and AKT signaling [2]: reduces; binding to HER2 [3]: irreversibly binds; tumor growth in mouse xenograft models [4]: inhibited tumor growth; antitumor activity in carcinoma cell lines [5]: antitumor activity; binding to HER4 (HER4): irreversibly binds
22 | CC(C)(C)NC[C@H](O)COc1nsnc1N1CCOCC1 [Timolol] | 9.34 |  | 

Row | Compound | Measured or Calculated pKas (first value) [1] | Measured or Calculated pKas (second value) [1] | further results
23 | CC[C@H]1OC(=O)[C@H](C)[C@@H](O[C@H]2C[C@@](C)(OC)[C@@H](O)[C@H](C)O2)[C@H](C)[C@@H](O[C@@H]2O[C@H](C)C[C@H](N(C)C)[C@H]2O)[C@](C)(O)C[C@@H](C)/C(=N\OCOCCOC)[C@H](C)[C@@H](O)[C@]1(C)O [Roxithromycin] | 9.17 ± 0.30 |  | 
24 | CN(C)[C@@H]1C(O)=C(C(N)=O)C(=O)[C@@]2(O)C(O)=C3C(=O)c4c(O)cccc4[C@@](C)(O)[C@H]3[C@H](O)[C@@H]12 [Oxytetracycline] | 3.04 | 8.00 | 
25 | O=C(O)Cc1ccccc1Nc1c(Cl)cccc1Cl [Diclofenac] | 4.16 |  | 
26 | CCN(CC)CCOC(=O)c1ccc(N)cc1 [Procaine] | 2.28 ± 0.08 | 9.02 ± 0.01 | 
27 | CCC(C(=O)O)c1ccc(CC(C)C)cc1 (stereo not drawn) [Butibufen] | 4.64 |  | 
28 | Cc1cc(C)nc(NS(=O)(=O)c2ccc(N)cc2)n1 [Sulfamethazine] | 2.28 | 7.42 | 
29 | CCn1cc(C(=O)O)c(=O)c2cc(F)c(N3CCNCC3)nc21 [Enoxacin] | 5.05 ± 0.08 | 6.25 ± 0.05 | 
30 | CN(C)[C@@H]1C(O)=C(C(N)=O)C(=O)[C@@]2(O)C(O)=C3C(=O)c4c(O)ccc(Cl)c4[C@@H](O)[C@H]3C[C@@H]12 [Demeclocycline] | 3.37 ± 0.30 | 7.36 ± 0.03 | 
31 | [H]/N=C(/N)NS(=O)(=O)c1ccc(N)cc1 [Sulfaguanidine] | 1.55 | 11.24 | 
32 | O=C(O)c1cn(-c2ccc(F)cc2)c2cc(N3CCNCC3)c(F)cc2c1=O [Sarafloxacin] | 5.62 ± 0.08 | 8.18 ± 0.09 | 
33 | COc1ccc2[nH]c([S+]([O-])Cc3ncc(C)c(OC)c3C)nc2c1 (stereo not drawn) [Omeprazole] | 4.14 | 8.90 | 
34 | CC(CCc1ccccc1)NCC(O)c1ccc(O)c(C(N)=O)c1 (stereo not drawn) [Labetalol] | 7.35 |  | 
35 | Nc1ccc(S(=O)(=O)Nc2nccs2)cc1 [Sulfathiazole] | 2.08 | 7.07 | 
36 | COc1cc2ncnc(Nc3ccc(F)c(Cl)c3)c2cc1OCCCN1CCOCC1 [Gefitinib] | 7.2 |  | 
37 | C[C@H]1c2cccc(O)c2C(=O)C2=C(O)[C@]3(O)C(=O)C(C(N)=O)=C(O)[C@@H](N(C)C)[C@@H]3[C@@H](O)[C@@H]21 [Doxycycline] | 3.02 ± 0.30 | 7.97 ± 0.15 | 
38 | CC(C(=O)O)c1ccc2c(c1)[nH]c1ccc(Cl)cc12 (stereo not drawn) [Carprofen] | 4.63 |  | 
39 | CN1CCN(c2c(F)cc3c(=O)c(C(=O)O)cn4c3c2OCN4C)CC1 [Marbofloxacin] | 5.69 ± 0.10 | 8.02 ± 0.20 | 
40 | CC(C(=O)O)c1ccc(-c2ccccc2)c(F)c1 (stereo not drawn) [Flurbiprofen] | 4.35 |  | 
41 | CC1COc2c(N3CCN(C)CC3)c(F)cc3c(=O)c(C(=O)O)cn1c23 (stereo not drawn) [Ofloxacin] | 6.22 ± 0.05 | 7.81 ± 0.08 | 
42 | COc1cc(Cc2cnc(N)nc2N)cc(OC)c1OC [Trimethoprim] | 3.23 ± 0.30 | 6.76 ± 0.12 | 
43 | CC1(C)S[C@@H]2[C@H](NC(=O)[C@H](N)c3ccc(O)cc3)C(=O)N2[C@H]1C(=O)O [Amoxicillin] | 3.39 | 6.71 | 
44 | C=CCOc1ccccc1OCC(O)CNC(C)C (stereo not drawn) [Oxprenolol] | 9.62 |  | 
